Data as given in US12516016B2, “GPX4 inhibitors, pharmaceutical compositions thereof, and their use for treating GPX4-mediated diseases” (EUBULUS BIOTHERAPEUTICS (HONG KONG) LIMITED, priority 2020, dated 2026).
pEC50: −log10 of the molar value.

System: hepatocellular carcinoma cell line Hub-7
Test: Anti-proliferation activity in the presence of a ferroptosis inhibitor
Format: cell-based
Conditions: in the presence of liproxstatin-1 (1 μM); read-out: Inhibition of Cell Proliferation EC50, Liproxstatin-1
Method: (§1) The activity of a test compound was determined in a cell proliferation assay using the hepatocellular carcinoma cell line […]. Cells (4,000 cells per well) were seeded in a 96-well tissue culture plate. After incubated overnight, a test compound was added at predetermined concentrations, starting with 10 μM and followed by 3-fold serial dilution. After the cells were incubated for 24 h, cell viability was determined using a CELL-TITER GLO® assay. The CELL-TITER GLO® reagent (50 μL) was added to each well and the luminescence was measured by a multimode microplate reader after a brief period of shaking. EC50 values were determined for the test compound. The results are summarized in Table 1, wherein A represents a value no greater than 100 nM, B represents a value greater than 100 nM but no greater than 500 nM, C represents a value greater than 500 nM but no greater than 2 μM, D represents a value greater than 2 μM but no greater than 10 μM; and E represents a value greater than 10 μM.
(§2) The anti-proliferation activity of compound 80 was tested in the presence of an ferroptosis inhibitor, ferrostatin-1 (1 μM) or liproxstatin-1 (1 μM).

`C#CC(=O)N(c1cccc(Cl)c1)C1(C(=O)NCc2ccccc2)CCOCC1` [A80, N-Benzyl-4-(N-(3-chlorophenyl)propiolamido)tetrahydro-2H-pyran-4-carboxamide] was tested. Which pEC50 did it give?
The pEC50 was less than 5.00.

Same assay, conditions: read-out: Inhibition of Cell Proliferation EC50, No Ferroptosis inhibitor

How did the pEC50 turn out when `C#CC(=O)N(c1cccc(Cl)c1)C1(C(=O)NCc2ccccc2)CCOCC1` [A80, N-Benzyl-4-(N-(3-chlorophenyl)propiolamido)tetrahydro-2H-pyran-4-carboxamide] was run?
Its pEC50 is no less than 7.00.

System: hepatocellular carcinoma cell line
Test: as above
Format: cell-based
Conditions: in the presence of ferrostatin-1 (1 μM); read-out: Inhibition of Cell Proliferation EC50, Ferrostatin-1
Method: as §1, §2

How did the pEC50 turn out when `C#CC(=O)N(c1cccc(Cl)c1)C1(C(=O)NCc2ccccc2)CCOCC1` [A80, N-Benzyl-4-(N-(3-chlorophenyl)propiolamido)tetrahydro-2H-pyran-4-carboxamide] was run?
The pEC50 was less than 5.00.

System: hepatocellular carcinoma cell line Hub-7
Test: Cell proliferation assay (CELL-TITER GLO cell viability)
Format: cell-based
Conditions: 24 h, Hub-7 cells, 24 h incubation, read-out: Inhibition of Cell Proliferation EC50
Summary of the method: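 […] cells (4,000/well) seeded overnight, then exposed 24 h to compound from 10 μM in 3-fold serial dilutions. Viability read by CELL-TITER GLO luminescence; EC50 values derived.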

How did the pEC50 turn out when `C#CC(=O)N(c1cccc(Cl)c1)C1(C(=O)NCc2ccccc2)CCOCC1` [A80, N-Benzyl-4-(N-(3-chlorophenyl)propiolamido)tetrahydro-2H-pyran-4-carboxamide] was run?
Its pEC50 is no less than 7.00.

With `C=CC(=O)N(c1ccc2c(cnn2C)c1)C1(C(=O)NCc2ccccc2)CCOCC1` [B11, N-Benzyl-4-(N-(1-methyl-1H-indazol-5-yl)acrylamido)tetrahydro-2H-pyran-4-carboxamide] as the compound, how does the pEC50 read?
Its pEC50 is less than 5.00.

With `CC(C)N(C(=O)CCl)C(C(=O)NCCc1ccccc1)c1cccs1` (stereo not drawn) [C1, 2-chloro-N-isopropyl-N-(2-oxo-2-(phenethylamino)-1-(thiophen-2-yl)ethyl)acetamide] as the compound, how does the pEC50 read?
Its pEC50 is less than 5.00.

How did the pEC50 turn out when `Nc1ccc(N(C(=O)CCl)C(C(=O)NCCc2ccccc2)c2cccs2)cc1` (stereo not drawn) [C2, N-(4-Aminophenyl)-2-chloro-N-(2-oxo-2-(phenethylamino)-1-(thiophen-2-yl)-ethyl)acetamide] was run?
The pEC50 was 5.00 to 5.70.

`COc1ccc(N(C(=O)CCl)C(C(=O)NCCc2ccccc2)c2ccc(N)cc2)cc1Cl` (stereo not drawn) [C3, 2-(4-aminophenyl)-2-(2-chloro-N-(3-chloro-4-methoxyphenyl)acetamido)-N-phenethylacetamide] was tested. Which pEC50 did it give?
The pEC50 was 6.30 to 7.00.

With `COc1ccc(N(C(=O)CCl)C(C(=O)NCCc2ccccc2)c2ccc(NC(=O)CO)cc2)cc1Cl` (stereo not drawn) [C4, 2-chloro-N-(3-chloro-4-methoxyphenyl)-N-(1-(4-(2-hydroxyacetamido)phenyl)-2-oxo-2-(phenethylamino)ethyl)acetamide] as the compound, how does the pEC50 read?
The pEC50 was 5.70 to 6.30.

How did the pEC50 turn out when `O=C(NCCc1ccccc1)C(c1ccc([N+](=O)[O-])cc1)N(C(=O)CCl)c1cccc(Cl)c1` (stereo not drawn) [C5, 2-chloro-N-(3-chlorophenyl)-N-(1-(4-nitrophenyl)-2-oxo-2-(phenethylamino)ethyl)acetamide] was run?
The pEC50 was 6.30 to 7.00.

How did the pEC50 turn out when `Nc1ccc(C(C(=O)NCCc2ccccc2)N(C(=O)CCl)c2cccc(Cl)c2)cc1` (stereo not drawn) [C6, 2-chloro-N-(3-chlorophenyl)-N-(1-(4-aminophenyl)-2-oxo-2-(phenethylamino)ethyl)acetamide] was run?
Its pEC50 is 5.70 to 6.30.

`COC(=O)c1cccc(N(C(=O)CCl)C(C(=O)NCCc2ccccc2)c2ccc([N+](=O)[O-])cc2)c1` (stereo not drawn) [C7, Methyl-3-(2-chloro-N-(1-(4-nitrophenyl)-2-oxo-2-(phenethylamino)ethyl)-acetamido)benzoate] was tested. Which pEC50 did it give?
The pEC50 was 6.30 to 7.00.

With `O=C(NCCc1ccccc1)C(c1ccc([N+](=O)[O-])cc1)N(Cc1cccs1)C(=O)CCl` (stereo not drawn) [C8, 2-Chloro-N-(1-(4-nitrophenyl)-2-oxo-2-(phenethylamino)ethyl)-N-(thiophen-2-ylmethyl)acetamide] as the compound, how does the pEC50 read?
Its pEC50 is 5.00 to 5.70.

How did the pEC50 turn out when `O=C(NCCc1ccccc1)C(c1ccc([N+](=O)[O-])cc1)N(C(=O)CCl)c1cccc(O)c1` (stereo not drawn) [C9, 2-Chloro-N-(3-hydroxyphenyl)-N-(1-(4-nitrophenyl)-2-oxo-2-(phenethylamino)-ethyl)acetamide] was run?
The pEC50 was 5.00 to 5.70.

`COc1cccc(N(C(=O)CCl)C(C(=O)NCCc2ccccc2)c2ccc([N+](=O)[O-])cc2)c1` (stereo not drawn) [C10, 2-Chloro-N-(3-methoxyphenyl)-N-(1-(4-nitrophenyl)-2-oxo-2-(phenethylamino)-ethyl)acetamide] was tested. Which pEC50 did it give?
The pEC50 was 6.30 to 7.00.

How did the pEC50 turn out when `CC(=O)Nc1cccc(N(C(=O)CCl)C(C(=O)NCCc2ccccc2)c2ccc([N+](=O)[O-])cc2)c1` (stereo not drawn) [C11, N-(3-Acetamidophenyl)-2-chloro-N-(1-(4-nitrophenyl)-2-oxo-2-(phenethyl-amino)ethyl)acetamide] was run?
The pEC50 was 5.00 to 5.70.

With `O=C(NCCc1ccccc1)C(c1ccc([N+](=O)[O-])cc1)N(Cc1ccccc1)C(=O)CCl` (stereo not drawn) [C12, N-Benzyl-2-chloro-N-(1-(4-nitrophenyl)-2-oxo-2-(phenethylamino)ethyl)-acetamide] as the compound, how does the pEC50 read?
The pEC50 was 5.00 to 5.70.

`COc1ccc(N(C(=O)CCl)C(C)C(=O)NCCc2ccccc2)cc1Cl` (stereo not drawn) [C14] was tested. Which pEC50 did it give?
The pEC50 was 5.70 to 6.30.

How did the pEC50 turn out when `O=C(CCl)N(c1ccc2c(c1)OCO2)C1(C(=O)NCc2ccccc2)CCOCC1` [C19, 4-(N-(Benzo[d][1,3]dioxol-5-yl)-2-chloroacetamido)-N-benzyltetrahydro-2H-pyran-4-carboxamide] was run?
The pEC50 was 5.00 to 5.70.

`COc1ccc(N(C(=O)CCl)C2(C(=O)NCCc3ccccc3)CCC(F)(F)CC2)cc1Cl` [C20, 1-(2-Chloro-N-(3-chloro-4-methoxyphenyl)acetamido)-4,4-difluoro-N-phenethyl-cyclohexane-1-carboxamide] was tested. Which pEC50 did it give?
Its pEC50 is 6.30 to 7.00.

How did the pEC50 turn out when `Cn1ncc2cc(N(C(=O)CCl)C3(C(=O)NCc4ccccc4)CCOCC3)ccc21` [C21, N-Benzyl-4-(2-chloro-N-(1-methyl-1H-indazol-5-yl)acetamido)tetrahydro-2H-pyran-4-carboxamide] was run?
The pEC50 was 5.70 to 6.30.

With `Cn1ncc2cc(N(C(=O)CCl)C3(C(=O)NCCc4ccccc4)CCOCC3)ccc21` [C22, 4-(2-Chloro-N-(1-methyl-1H-indazol-5-yl)acetamido)-N-phenethyltetrahydro-2H-pyran-4-carboxamide] as the compound, how does the pEC50 read?
Its pEC50 is 5.70 to 6.30.

How did the pEC50 turn out when `CC(Cl)C(=O)N(c1ccc2c(cnn2C)c1)C1(C(=O)NCc2ccccc2)CCOCC1` (stereo not drawn) [C24, N-Benzyl-4-(2-chloro-N-(1-methyl-1H-indazol-5-yl)propanamido)tetrahydro-2H-pyran-4-carboxamide] was run?
The pEC50 was less than 5.00.

How did the pEC50 turn out when `COc1ccc(N(C(=O)CCl)C2(C(=O)NCc3ccccc3)CCOCC2)cc1Cl` [C25, N-Benzyl-4-(2-chloro-N-(3-chloro-4-methoxyphenyl)acetamido)tetrahydro-2H-pyran-4-carboxamide] was run?
Its pEC50 is 6.30 to 7.00.

How did the pEC50 turn out when `COc1ccc(N(C(=O)CCl)C2(C(=O)NCCc3ccccc3)CCOCC2)cc1Cl` [C26, 4-(2-Chloro-N-(3-chloro-4-methoxyphenyl)acetamido)-N-phenethyltetrahydro-2H-pyran-4-carboxamide] was run?
The pEC50 was no less than 7.00.

How did the pEC50 turn out when `COc1ccc(N(C(=O)CCl)C2(C(=O)NCc3ccccc3)CCC(F)(F)CC2)cc1Cl` [C27, N-Benzyl-1-(2-chloro-N-(3-chloro-4-methoxyphenyl)acetamido)-4,4-difluoro-cyclohexane-1-carboxamide] was run?
Its pEC50 is no less than 7.00.

With `O=C(CCl)N(c1cccc2nsnc12)C1(C(=O)NCc2ccccc2)CCOCC1` [C28, 4-(N-(Benzo[c][1,2,5]thiadiazol-4-yl)-2-chloroacetamido)-N-benzyltetrahydro-2H-pyran-4-carboxamide] as the compound, how does the pEC50 read?
The pEC50 was 6.30 to 7.00.

`O=C(CCl)N(c1cccc2nsnc12)C1(C(=O)NCCc2ccccc2)CCOCC1` [C29, 4-(N-(Benzo[c][1,2,5]thiadiazol-4-yl)-2-chloroacetamido)-N-phenethyltetrahydro-2H-pyran-4-carboxamide] was tested. Which pEC50 did it give?
The pEC50 was 5.70 to 6.30.

How did the pEC50 turn out when `Cn1ncc2cc(N(C(=O)C3CO3)C3(C(=O)NCc4ccccc4)CCOCC3)ccc21` (stereo not drawn) [C30, N-Benzyl-4-(N-(1-methyl-1H-indazol-5-yl)oxirane-2-carboxamido)tetrahydro-2H-pyran-4-carboxamide] was run?
Its pEC50 is less than 5.00.

With `Cn1ncc2cc(N(C(=O)C(F)F)C3(C(=O)NCc4ccccc4)CCOCC3)ccc21` [D1, N-Benzyl-4-(2,2-difluoro-N-(1-methyl-1H-indazol-5-yl)acetamido)tetrahydro-2H-pyran-4-carboxamide] as the compound, how does the pEC50 read?
Its pEC50 is less than 5.00.

How did the pEC50 turn out when `CC(=O)N(c1ccc2c(cnn2C)c1)C1(C(=O)NCc2ccccc2)CCCOC1` (stereo not drawn) [D2, N-Benzyl-3-(N-(1-methyl-1H-indazol-5-yl)acetamido)tetrahydro-2H-pyran-3-carboxamide] was run?
Its pEC50 is less than 5.00.

`Cn1ncc2cc(N(C(=O)CO)C3(C(=O)NCc4ccccc4)CCOCC3)ccc21` [D3, N-Benzyl-4-(2-hydroxy-N-(1-methyl-1H-indazol-5-yl)acetamido)tetrahydro-2H-pyran-4-carboxamide] was tested. Which pEC50 did it give?
The pEC50 was less than 5.00.

`CCC(=O)N(c1cccc(Cl)c1)C(C(=O)NCc1ccccc1)c1ccc(N)cc1` (stereo not drawn) [D4, N-(1-(4-Aminophenyl)-2-(benzylamino)-2-oxoethyl)-N-(3-chlorophenyl)-propionamide] was tested. Which pEC50 did it give?
The pEC50 was less than 5.00.

How did the pEC50 turn out when `Cn1ncc2cc(N(C(=O)CCCl)C3(C(=O)NCc4ccccc4)CCOCC3)ccc21` [D5, N-Benzyl-4-(3-chloro-N-(1-methyl-1H-indazol-5-yl)propanamido)tetrahydro-2H-pyran-4-carboxamide] was run?
The pEC50 was less than 5.00.

How did the pEC50 turn out when `Cn1ncc2cc(N(C(=O)CCBr)C3(C(=O)NCc4ccccc4)CCOCC3)ccc21` [D6, N-Benzyl-4-(3-bromo-N-(1-methyl-1H-indazol-5-yl)propanamido)tetrahydro-2H-pyran-4-carboxamide] was run?
The pEC50 was less than 5.00.

With `N#CCC(=O)N(c1cccc(Cl)c1)C1(C(=O)NCc2ccccc2)CCOCC1` [D7, N-Benzyl-4-(N-(3-chlorophenyl)-2-cyanoacetamido)tetrahydro-2H-pyran-4-carboxamide] as the compound, how does the pEC50 read?
The pEC50 was less than 5.00.

Same assay, conditions: Hub-7 cells, 24 h incubation, control, read-out: EC50

With `COc1ccc(N(C(=O)CCl)C(C(=O)NCCc2ccccc2)c2cccs2)cc1Cl` (stereo not drawn) [ML-162, reference compound] as the compound, how does the pEC50 read?
The pEC50 was 6.86.

Same assay, conditions: Hub-7 cells, 24 h incubation, read-out: Inhibition of Cell Proliferation EC50

How did the pEC50 turn out when `Nc1cccc(N(C(=O)CCl)C(C(=O)NCCc2ccccc2)c2cccs2)c1` (stereo not drawn) [C13] was run?
The pEC50 was 5.00 to 5.70.

With `COc1ccc(N(C(=O)CCl)C(C(=O)NCCc2ccccc2)c2cccs2)cc1Cl` (stereo not drawn) [ML-162, reference compound] as the compound, how does the pEC50 read?
The pEC50 was 6.30 to 7.00.
